Key:
δ opioid receptor = δ opioid receptor (Homo sapiens, UniProt P41143); assay: biochemical; assay type: binding
[1] = systemic administration; greater than I; cited from earlier work
[2] = higher than I; cited from earlier work
[3] = higher than I; cited from earlier work; remark: listed apart in the source

Sequence of δ opioid receptor (P41143 whole entry): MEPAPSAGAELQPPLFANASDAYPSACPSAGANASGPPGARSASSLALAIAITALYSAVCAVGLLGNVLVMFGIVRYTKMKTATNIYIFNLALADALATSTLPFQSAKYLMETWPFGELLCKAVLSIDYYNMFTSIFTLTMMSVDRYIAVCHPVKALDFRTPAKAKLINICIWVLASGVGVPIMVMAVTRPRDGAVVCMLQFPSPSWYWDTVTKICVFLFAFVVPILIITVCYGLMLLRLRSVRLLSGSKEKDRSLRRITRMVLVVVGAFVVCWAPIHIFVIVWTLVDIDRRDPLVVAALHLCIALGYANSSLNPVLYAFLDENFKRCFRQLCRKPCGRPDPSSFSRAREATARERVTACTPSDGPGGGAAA

Row | SMILES | Ki (δ opioid receptor) | further results
1 | CCCCN(CCCC)CCOC/C=C/c1ccccc1 [Compound 17, 2-(Cinnamyloxy)-N,N-dibutylethanamine] | > 10 µM | –
2 | CCCCN(CCCC)CCOCCCc1ccccc1 [Compound 18, N,N-dibutyl-2-(3-phenylpropoxy)ethanamine] | > 10 µM | –
3 | CN(CCOC/C=C/c1ccccc1)Cc1ccccc1 [Compound 33, N-benzyl-2-(cinnamyloxy)-N-methylethanamine] | > 10 µM | –
4 | CN(CCOCCCc1ccccc1)Cc1ccccc1 [Compound 34, N-benzyl-N-methyl-2-(3-phenylpropoxy)ethanamine] | > 10 µM | –
5 | CN(CCCc1ccccc1)CCOC/C=C/c1ccccc1 [Compound 37, 2-(Cinnamyloxy)-N-methyl-N-phenylpropylethanamine] | > 10 µM | –
6 | CO[C@@]12CCC(=O)[C@]3(C)Oc4c(O)ccc5c4[C@@]31CCN(C)[C@@H]2C5 [II, 14-methoxymetopon] | – | systemic antinociceptive potency relative to I (morphine) [1]: 500 fold
7 | CN1CCC23c4c5ccc(O)c4OC2(C)C(=O)CCC3(OCCCc2ccccc2)C1C5 (centres unmarked) [III, 14-phenylpropyloxymetopon] | – | potency in the tail flick assay as compared to I (morphine) [2]: 24000 fold; potency in the hot plate assay as compared to I (morphine) [3]: 8500 fold

From PMC3401595 (Bioorganic & medicinal chemistry, 2012)
